Source: PubChem BioAssay AID2060627 (Molecular Pharmacology Branch, DTP, NCI, 2025)
Several values for one entry are separate records, joined by “and”; a condition that tells them apart may be missing. Identical values can stand only once.

System: 156681-154-R-J1-PDC complex spheroid viability
Assay: Anticancer human tumor 156681-154-R-J1-PDC patient-derived melanoma cell line growth inhibition [CLK]
Settings: for viability, T/C: stronger effect = lower value
Outline: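 Patient-derived tumor cells grown as complex spheroids with HUVEC endothelial cells and mesenchymal stem cells, treated with drug combinations. Concentrations descend in half-log steps from near clinical Cmax, or from 10 microM if Cmax unknown.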

[1] = curve of first compound, second compound 0.0316 µM
[2] = curve of first compound, second compound 0.1 µM
[3] = curve of first compound, second compound 0.316 µM
[4] = curve of first compound, second compound 1 µM
[5] = curve of first compound, second compound 3.16 µM
[6] = curve of first compound, second compound 10 µM
[7] = second compound 0.0316 µM, first compound 0.0316 µM
[8] = second compound 0.0316 µM, first compound 0.1 µM
[9] = second compound 0.0316 µM, first compound 0.316 µM
[10] = second compound 0.0316 µM, first compound 1 µM
[11] = second compound 0.0316 µM, first compound 3.16 µM
[12] = second compound 0.0316 µM, first compound 10 µM
[13] = second compound 0.1 µM, first compound 0.0316 µM
[14] = second compound 0.1 µM, first compound 0.1 µM
[15] = second compound 0.1 µM, first compound 0.316 µM
[16] = second compound 0.1 µM, first compound 1 µM
[17] = second compound 0.1 µM, first compound 3.16 µM
[18] = second compound 0.1 µM, first compound 10 µM
[19] = second compound 0.316 µM, first compound 0.0316 µM
[20] = second compound 0.316 µM, first compound 0.1 µM
[21] = second compound 0.316 µM, first compound 0.316 µM
[22] = second compound 0.316 µM, first compound 1 µM
[23] = second compound 0.316 µM, first compound 3.16 µM
[24] = second compound 0.316 µM, first compound 10 µM
[25] = second compound 1 µM, first compound 0.0316 µM
[26] = second compound 1 µM, first compound 0.1 µM
[27] = second compound 1 µM, first compound 0.316 µM
[28] = second compound 1 µM, first compound 1 µM
[29] = second compound 1 µM, first compound 3.16 µM
[30] = second compound 1 µM, first compound 10 µM
[31] = second compound 3.16 µM, first compound 0.0316 µM
[32] = second compound 3.16 µM, first compound 0.1 µM
[33] = second compound 3.16 µM, first compound 0.316 µM
[34] = second compound 3.16 µM, first compound 1 µM
[35] = second compound 3.16 µM, first compound 3.16 µM
[36] = second compound 3.16 µM, first compound 10 µM
[37] = second compound 10 µM, first compound 0.0316 µM
[38] = second compound 10 µM, first compound 0.1 µM
[39] = second compound 10 µM, first compound 0.316 µM
[40] = second compound 10 µM, first compound 1 µM
[41] = second compound 10 µM, first compound 3.16 µM
[42] = second compound 10 µM, first compound 10 µM
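Also: spheroids exposed to the agents for seven days.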
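For viability, T/C in this document: 100% = DMSO vehicle control viability.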

Compound: CC(CO)NC(=O)c1cc(-c2ccc(Cl)cc2)nn(-c2cnn(C)c2)c1=O (stereo unspecified) + CNC(=O)c1ccc(Nc2nc(OC3CCCC3)c3c(-c4ccc5nc(C)oc5c4)c[nH]c3n2)c(OC)c1
- IC50 [1]: > 10 µM
- IC50 [2]: > 10 µM
- IC50 [3]: 4.91 µM
- IC50 [4]: < 0.0316 µM
- IC50 [5]: < 0.0316 µM
- IC50 [6]: < 0.0316 µM
- viability, T/C [7]: 83.5%
- viability, T/C [8]: 107%
- viability, T/C [9]: 122%
- viability, T/C [10]: 101%
- viability, T/C [11]: 86.5%
- viability, T/C [12]: 56.8%
- viability, T/C [13]: 53.1%
- viability, T/C [14]: 84.6%
- viability, T/C [15]: 78.9%
- viability, T/C [16]: 81.7%
- viability, T/C [17]: 67.2%
- viability, T/C [18]: 50.6%
- viability, T/C [19]: 62.9%
- viability, T/C [20]: 71.4%
- viability, T/C [21]: 58.8%
- viability, T/C [22]: 58.8%
- viability, T/C [23]: 59.3%
- viability, T/C [24]: 38.2%
- viability, T/C [25]: 50.8%
- viability, T/C [26]: 42.9%
- viability, T/C [27]: 37.6%
- viability, T/C [28]: 44.8%
- viability, T/C [29]: 39.2%
- viability, T/C [30]: 35.3%
- viability, T/C [31]: 47.4%
- viability, T/C [32]: 36.9%
- viability, T/C [33]: 42.1%
- viability, T/C [34]: 36.7%
- viability, T/C [35]: 37.8%
- viability, T/C [36]: 23.2%
- viability, T/C [37]: 42.6%
- viability, T/C [38]: 43.8%
- viability, T/C [39]: 35.8%
- viability, T/C [40]: 35.6%
- viability, T/C [41]: 29.5%
- viability, T/C [42]: 21.2%

Compound: CC1(C)CCC(CN2CCN(c3ccc(C(=O)NS(=O)(=O)c4ccc(NCC5CCOCC5)c([N+](=O)[O-])c4)c(Oc4cnc5[nH]ccc5c4)c3)CC2)=C(c2ccc(Cl)cc2)C1
- viability, T/C (compound 0.0316 µM): 112% and 88.5%
- viability, T/C (compound 0.1 µM): 81.5% and 88.9%
- viability, T/C (compound 0.316 µM): 88.7% and 90.4%
- viability, T/C (compound 1 µM): 101% and 94.3%
- viability, T/C (compound 3.16 µM): 68.2% and 77.1%
- viability, T/C (compound 10 µM): 4.6% and 1.6%
- IC50 (curve of compound): 4.39 µM and 4.78 µM

Compound: CC(=O)O[C@H]1C(=O)[C@@]2(C)[C@H]([C@H](OC(=O)c3ccccc3)[C@]3(O)C[C@H](OC(=O)[C@H](O)[C@@H](NC(=O)c4ccccc4)c4ccccc4)C(C)=C1C3(C)C)[C@]1(OC(C)=O)CO[C@@H]1C[C@@H]2O + CNC(=O)c1ccc(Nc2nc(OC3CCCC3)c3c(-c4ccc5nc(C)oc5c4)c[nH]c3n2)c(OC)c1
- IC50 [1]: < 0.0316 µM
- IC50 [2]: < 0.0316 µM
- IC50 [3]: > 10 µM
- IC50 [4]: > 10 µM
- IC50 [5]: > 10 µM
- IC50 [6]: > 10 µM
- viability, T/C [7]: 16.8%
- viability, T/C [8]: 19%
- viability, T/C [9]: 13.9%
- viability, T/C [10]: 19.6%
- viability, T/C [11]: 30.7%
- viability, T/C [12]: 41.1%
- viability, T/C [13]: 36.3%
- viability, T/C [14]: 24.6%
- viability, T/C [15]: 38.9%
- viability, T/C [16]: 44.2%
- viability, T/C [17]: 61.3%
- viability, T/C [18]: 56.1%
- viability, T/C [19]: 78.4%
- viability, T/C [20]: 88.8%
- viability, T/C [21]: 55.4%
- viability, T/C [22]: 91.9%
- viability, T/C [23]: 102%
- viability, T/C [24]: 95.3%
- viability, T/C [25]: 58.5%
- viability, T/C [26]: 66.6%
- viability, T/C [27]: 65.5%
- viability, T/C [28]: 71.7%
- viability, T/C [29]: 85%
- viability, T/C [30]: 76.4%
- viability, T/C [31]: 63.2%
- viability, T/C [32]: 60.1%
- viability, T/C [33]: 56%
- viability, T/C [34]: 71.4%
- viability, T/C [35]: 78.6%
- viability, T/C [36]: 58.4%
- viability, T/C [37]: 51.6%
- viability, T/C [38]: 51.3%
- viability, T/C [39]: 55.2%
- viability, T/C [40]: 47.1%
- viability, T/C [41]: 57.5%
- viability, T/C [42]: 55.2%
